{"source": "paper PMC12703428", "about": "“Development of Granzyme A Turn‐ON Fluorescent Activity‐Based Probes” (Chembiochem, 2025)", "key": {"[1]": {"target": "T1, hGzmA (Homo sapiens, UniProt P12544)", "T1 construct": "active, mature form; purchased Enzo Life Sciences ALX-201-118-C010", "T1 sequence (P12544 29-262)": "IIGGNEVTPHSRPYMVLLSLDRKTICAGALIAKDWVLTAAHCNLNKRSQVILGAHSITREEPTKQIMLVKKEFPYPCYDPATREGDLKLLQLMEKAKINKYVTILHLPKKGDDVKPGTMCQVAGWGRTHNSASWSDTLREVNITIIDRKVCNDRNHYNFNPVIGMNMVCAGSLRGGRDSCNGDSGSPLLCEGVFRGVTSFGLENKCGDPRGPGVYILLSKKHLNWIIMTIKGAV", "assay": "Granzyme A cleavage assay (fluorogenic substrate)", "type": "biochemical", "conditions": "hGzmA 50 nM, inhibitor 200 nM, substrate 100 μM, 50 mM Tris, 150 mM NaCl, 0.01% Triton X-100 pH 8, 15 h, 37 °C, Ex/Em 380/460 nm, mean ± SD n = 3", "protocol": "Figure 1 GzmA phosphonate and phosphinate inhibitors. A) Synthesis of phosphonate warhead I‐3. B) Synthesis of phosphosphinate warhead I‐4. C) Synthesis of Ac‐IGNR‐PO(OPh)2 1 and Ac‐IGNR‐PO(OPh)Ph 2. D) GzmA inhibition. hGzmA (50 nM) was incubated with inhibitor 1 or 2 (200 nM) and GzmA fluorogenic substrate (Ac‐Oic‐Gly‐Pro‐Arg‐PABA‐MU, 100 μM) for 15 h at 37 °C. Fluorescence at Ex/Em: 380/460 nm was recorded for residual GzmA proteolytic activity.\nA. Granzyme A cleavage assay\nBriefly, hGzmA (50 nM) was incubated with either inhibitor 1 or 2 (200 nM), and GzmA fluorogenic substrate […] (100 µM) in 50 mM Tris, 150 mM NaCl, 0.01% Triton X-100 (pH 8) for 15 hr at 37 °C. Recorded fluorescence at Ex/Em: 380/460 nm for residual GzmA […]\nCat. No. CRL-2570) and 4T1 (ATCC Cat. No. CRL-2539) cells were cultured in RPMI supplemented with 10% fetal bovine serum (FBS), 1% penicillin/streptomycin (PS), and 2 mM L-glutamine, while HEK293T and MDA-MB-231 cells (ATCC Cat. No. HTB-26) were cultured in DMEM supplemented likewise as described above. […] The supernatant was collected, and protein concentration was measured using a Pierce BCA protein assay. […]\nC. In-gel fluorescence imaging […]\nConditions for probe/inhibitor treatment for in-gel fluorescence analysis: Inhibitors and probes were incubated with active (or pro-) GzmA followed by treatment with 4X SDS reducing sample buffer. […]"}, "[2]": {"target": "T2, recombinant human GzmA (hGzmA) (Homo sapiens, UniProt P12544)", "T2 construct": "active, mature form; purchased Enzo Life Sciences ALX-201-118-C010", "T2 sequence (P12544 29-262)": "T1 sequence (P12544 29-262)", "assay": "In-gel fluorescence labeling of recombinant active hGzmA", "type": "biochemical", "conditions": "hGzmA 100 nM preincubated with inhibitor 5 μM 2 h, then ABPs 3–5 50 nM 2 h, 37 °C", "protocol": "Figure 3 GzmA ABPs covalently and competitively label active human and mouse GzmA. […] Recombinant hGzmA (100 nM) was incubated with varying concentrations of each ABP at 37 °C. B) Competitive labeling of hGzmA. Recombinant hGzmA (100 nM) was preincubated with covalent inhibitors 1 or 2 (5 μM) for 2 h, followed by labeling with ABPs 3 –5 (50 nM) for 2 h at 37 °C. Note: Pro‐form of hGzmA (the first lane) is not effectively stained by SYPRO‐Ruby. C) Structure of qABP 6. D) Quenched natures of 5 and 6. […] F) Labeling of mGzmA (1 μM) with 5 and 6 (1 μM, 24 h, 37 °C). Protein samples were analyzed by SDS‐PAGE and in‐gel fluorescence scanning for Cy5 signal and SYPRO Ruby staining. […]\nC. In-gel fluorescence imaging\nFor recombinant enzyme labeling, working solutions of hGzmA (purchased from R&D Systems, Cat. No. 2905-SE-010 for pro-from and Enzo Life Sciences, Cat. No.: ALX-201-118-C010 for active, mature form) were prepared by diluting a 12.6 µM stock in the following assay buffer: 50 […]\nmM Tris, 100 mM NaCl, 5 mM CaCl2, 0.01% (v/v) Tween-20, pH 7.5. […]\nIn-gel fluorescence and\nSYPRO-Ruby staining images were acquired on a Typhoon FLA9500 instrument, while western blot images were acquired on an AMHERST ImageQuant 800 instrument.\nConditions for probe/inhibitor treatment for in-gel fluorescence analysis: Inhibitors and probes were incubated with active (or pro-) GzmA followed by treatment with 4X SDS reducing sample buffer. Samples were then heated to 100 °C for 5 min, brought to room temperature, and centrifuged. 20 µL of each sample was loaded onto a 15% polyacrylamide gel, which was then subjected to electrophoresis followed by the acquisition of in-gel fluorescence images. GzmA labeling was confirmed by western blotting, while protein loading was confirmed with SYPRO-Ruby staining. Incubation conditions for each figure/experiment are described below:\nConditions for Figure 3A: For labeling comparison between 3, 4, and 5, 100 nM of human GzmA was incubated with various concentrations of each probe for 2 h at 37 °C. For time-dependent labeling, 50 nM of 5 was incubated with 100 nM of human GzmA at 37 °C for the specified durations. Final reaction volume for both was 20 µL.\nConditions for Figure 3B: 100 nM of human GzmA was incubated with DMSO or 5 µM of 1 or 2 for 2 h at 37 °C in Eppendorf tubes. 0.5 µL of a 2 µM solution of 3, 4, or 5 in DMSO was then spiked into the Eppendorf tube, yielding a final probe concentration of 50 nM. The solution was incubated for another 2 h at 37 °C. Final reaction volume was 20 µL.\nConditions for Figure 3E: 100 nM of human GzmA was incubated with various concentrations of 5 or 6, respectively, for 2 h at 37 °C. Final reaction volume was 20 µL.\nConditions for Figure 3F: 1 µM of mouse GzmA was incubated with 1 µM of 5 or 6, respectively, for 24 h at 37 °C. Final reaction volume was 20 µL.\nConditions for Figure 4A: 1 mg/mL of lysates was incubated with various concentrations of 5 or 6, respectively, for 1 h at 37 °C.\nConditions for Figure 4C: Various concentrations of probes 3-6 were incubated with 1x10^6 NK-92 cells for 2 h at 37 °C in a humidified incubator. Cells were centrifuged, washed with PBS (x2) and lysed with ~40 µL of ice-cold RIPA buffer. Lysates were collected, protein concentration was measured with PIERCE BCA protein assay and samples were analyzed with in-gel fluorescence and GzmA western blotting. […]\nAll flow cytometry data were collected on BD LSRFortessa and FACSymphony A5 Cell Analyzers and analyzed with FlowJo software. Briefly, cells were processed according to the intended protocols for each experiment. Thereafter, cells were pelleted, fixed in the dark for 20 min at room temperature (Fixation buffer: BioLegend #420801), and pelleted again by centrifugation. Fixed cells were then resuspended in 1x intracellular staining perm wash buffer (BioLegend #421002), followed by centrifugation two times. Fixed/Permeabilized cells were then resuspended in […]"}}, "data": [{"smiles": "CC[C@H](C)[C@H](NC(C)=O)C(=O)NCC(=O)N[C@@H](CC(N)=O)C(=O)NC(CCCNC(=N)N)P(=O)(Oc1ccccc1)c1ccccc1", "note": "(stereo partly shown) [compound 2, Ac‐IGNR‐PO(OPh)Ph]", "values": [{"measurement": "Inhibition of GzmA‐mediated cleavage of a fluorogenic substrate (residual GzmA proteolytic activity)", "setting": "[1]", "value": "comparable potency"}, {"measurement": "Blocking of ABP labeling of hGzmA by inhibitor pretreatment", "setting": "[2]", "value": "competitively blocked"}]}, {"smiles": "CC[C@H](C)[C@H](NC(C)=O)C(=O)NCC(=O)N[C@@H](CC(N)=O)C(=O)NC(CCCNC(=N)N)P(=O)(Oc1ccccc1)Oc1ccccc1", "note": "(stereo partly shown) [compound 1, Ac‐IGNR‐PO(OPh)2]", "values": [{"measurement": "Inhibition of GzmA‐mediated cleavage of a fluorogenic substrate (residual GzmA proteolytic activity)", "setting": "[1]", "value": "comparable potency"}, {"measurement": "Blocking of ABP labeling of hGzmA by inhibitor pretreatment", "setting": "[2]", "value": "competitively blocked"}]}]}
